The values that follow come from US4463004A, “Dioxazabicyclic derivatives” (Delalande S.A., priority 1981, dated 1984).

One series relates to mice. Put plainly: analgesia test using phenylbenzoquinone. It is filed as in vivo. The note with it: Mus musculus, ip, read-out: Analgesia test ED 50. The procedure: Exp. Biol. Med. 95, 729(1957).
The compounds of the invention were administered intraperitoneally.

The nature of series [1]: Acute toxicity, intraperitoneal (Miller and Tainter). To be noted: mouse, in vivo, ip; mice, i.p.; read-out: Acute toxicity LD 50. How it is done:
Acute toxicity was evaluated intraperitoneally in mice according to the method described by MILLER and TAINTER in Proc. Soc. Exp. Biol. Med. 57, 261 (1944).

Where only a bound is given, the exact number is not on record here.

Take `CC(C)(C)C12CNCC(CO1)O2` (stereo not drawn) [Code number 1]: in the series with mice, the ED50 is 18 mg/kg. In addition, the LD50 in series [1] is 400 mg/kg.

Consider `c1csc(C23CNCC(CO2)O3)c1` (stereo not drawn) [Code number 4], for which the ED50 with mice is 24 mg/kg. Also, the LD50 in series [1] was more than 400 mg/kg.

In the case of `Fc1ccc(C23CNCC(CO2)O3)cc1` (stereo not drawn) [Code number 7, 5-parafluorophenyl-6,8-dioxa-3-azabicyclo [3.2.1] octane meleate], in the series on mice, the ED50 was found to be 10 mg/kg. In addition, the LD50 in series [1] amounted to 300 mg/kg.

Regarding `Clc1cccc(C23CNCC(CO2)O3)c1` (stereo not drawn) [Code number 9], in the series with mice, the ED50 is 10 mg/kg. The LD50 in series [1] is 240 mg/kg.

Take `COc1ccccc1C12CNCC(CO1)O2` (stereo not drawn) [compound 14]: the ED50 in the series with mice stood at 8 mg/kg. Moreover, the LD50 in series [1] amounted to 300 mg/kg.

In the case of `N#Cc1ccc(C23CNCC(CO2)O3)cc1` (stereo not drawn) [compound 19], the ED50 with mice came out at 19 mg/kg. In series [1], the LD50 came out at 280 mg/kg.

Take `O=[N+]([O-])c1ccc(C23CNCC(CO2)O3)cc1` (stereo not drawn) [compound 21]: in the series with mice, the ED50 amounted to 10 mg/kg. For the same compound, the LD50 in series [1] turned out to be 290 mg/kg.

Turning to `Clc1ccc(C23CNCC(CO2)O3)cc1Cl` (stereo not drawn) [compound 23], the ED50 with mice is 10 mg/kg. In series [1], the LD50 was 300 mg/kg.

In the case of `CCN1CC2COC(c3ccc(F)cc3)(C1)O2` (stereo not drawn) [compound 25], the ED50 with mice is 14 mg/kg. Further, the LD50 in series [1] was found to be 280 mg/kg.

Turning to `c1ccc(CN2CC3COC(C4CCCCC4)(C2)O3)cc1` (stereo not drawn) [compound 30], the ED50 with mice came to 26 mg/kg. Besides, in series [1], the LD50 is more than 400 mg/kg.

On to `Fc1ccc(C23CCCNCC(CO2)O3)cc1` (stereo not drawn) [compound 32], for which, in the series with mice, the ED50 was found to be 9 mg/kg. For the same compound, in series [1], the LD50 worked out at 140 mg/kg.

Consider `C1C2CC3CC1CC(C14CNCC(CO1)O4)(C2)C3` (stereo not drawn) [compound 36], for which the ED50 with mice amounted to 30 mg/kg. The LD50 in series [1] was found to be 185 mg/kg.

On to `c1ccc2cc(C34CNCC(CO3)O4)ccc2c1` (stereo not drawn) [compound 39], for which the ED50 in the series on mice is 8 mg/kg. Besides, the LD50 in series [1] was determined as 310 mg/kg.

For the compound `c1ccc(-c2ccc(C34CNCC(CO3)O4)cc2)cc1` (stereo not drawn) [compound 40], in the series with mice, the ED50 worked out at 24 mg/kg. For the same compound, in series [1], the LD50 turned out to be 310 mg/kg.

On to `c1cc(C23CNCC(CO2)O3)ccc1C1CCCCC1` (stereo not drawn) [compound 42], for which the ED50 in the series with mice amounted to 15 mg/kg. Further, the LD50 in series [1] was more than 400 mg/kg.

Turning to `CC(=O)Nc1ccc(C23CNCC(CO2)O3)cc1` (stereo not drawn) [compound 44], the ED50 in the series with mice is 7 mg/kg. Also, the LD50 in series [1] came out at 380 mg/kg.

In the case of `c1cncc(C23CNCC(CO2)O3)c1` (stereo not drawn) [compound 48], in the series on mice, the ED50 is 58 mg/kg. In series [1], the LD50 was more than 400 mg/kg.

Consider `O=C(O)c1ccc(C23CNCC(CO2)O3)cc1` (stereo not drawn) [compound 54], for which the ED50 with mice came to 38 mg/kg. Also, the LD50 in series [1] was more than 400 mg/kg.

As for `COc1ccc2cc(C34CNCC(CO3)O4)ccc2c1` (stereo not drawn) [compound 56], the ED50 in the series with mice is 21 mg/kg. The LD50 in series [1] came to 240 mg/kg.

In the case of `c1ccc2c(C34CNCC(CO3)O4)cccc2c1` (stereo not drawn) [compound 58], the ED50 in the series with mice was found to be 28 mg/kg. For the same compound, the LD50 in series [1] was 160 mg/kg.

As for `O=C(c1ccccc1)c1cccc(C23CNCC(CO2)O3)c1` (stereo not drawn) [compound 59], the ED50 in the series with mice turned out to be 13.5 mg/kg. Moreover, the LD50 in series [1] was 155 mg/kg.
